In US6642386B2, “N-(4-carbamimidoyl-phenyl)-glycine derivatives” (Hoffmann-La Roche Inc., priority 2002, dated 2003):
Values after ≈ are worked out from the molar mass of the structure shown. Where two headings read alike, the source gives them in different places.

How the values were obtained:
human plasma = test: prothrombin time (PT) clotting test; type: biochemical; details: inhibitor concentration which brought about a doubling of the PT clotting time, Innovin (recombinant human tissue factor)
Experimental: The activity of the low molecular weight substances can, moreover, be characterized in the “prothrombi” time” (PT) clotting test. The substances are prepared as a 10 mM solution in DMSO or DMSO/0.1M HCl (DHCl) and thereafter made up to the desired dilution in the same solvent. Thereafter, 0.25 ml of human plasma (obtained from whole blood anticoagulated with 1/10 volume of 108 mM Na citrate) was placed in the instrument-specific sample container. In each case 5 μl of each dilution of the substance-dilution series was then mixed with the plasma provided. This plasma/inhibitor mixture was incubated at 37° C. for 2 minutes. Thereafter, there were pipetted to the semi-automatic device (ACL, Automated Coagulation Laboratory (Instrument Laboratory)) 50 μl of plasma/inhibitor mixture in the measurement container. The clotting reaction was initiated by the addition of 0.1 ml of Innovin® (recombinant human tissue factor combined with calcium buffer and synthetic phospholipids(Dade Behring®, Inc.). The time up to the fibrin cross-linking was determined photooptically from the ACL. The inhibitor concentration, which brought about a doubling of the PT clotting time, was determined by means of a graph.

[1] = Solubility (phosphate buffer); type: physicochemical

Structure (SMILES) | concentration doubling PT clotting time (human plasma) | Solubility (phosphate buffer, pH 6.5) ([1]; pH 6.5) | melting point | solubility ([1]; aqueous buffer, pH 5 (stated in the cell), read-out: Solubility (phosphate buffer, pH 5)) | solubility ([1]; pH 6.5, aqueous buffer, read-out: Solubility (phosphate buffer, pH 6.5))
CCOc1cc(O[C@@H]2CCCN(C)C2)c(F)c([C@@H](Nc2ccc(C(=N)N)cc2)C(=O)O)c1 (racemic) [Example 2.3, (RS)- and (SR)-(4-carbamimidoyl-phenylamino)-[5-ethoxy-2-fluoro-3-[(RS)-1-methyl-piperidin-3-yloxy]-phenyl]-acetic acid] | 2.1 µM | 2.2 mg/ml |  |  | 
CCOc1cc(OCC2CCN(C)CC2)c(F)c(C(Nc2ccc(C(=N)N)cc2)C(=O)O)c1 (racemic) [Example 6.3, (RS)-(4-carbamimidoyl-phenylamino)-[5-ethoxy-2-fluoro-3-(1-methyl-piperidin-4-ylmethoxy)-phenyl]-acetic acid] |  |  | 232 °C |  | 
CCOc1cc(OC2CCN(C)CC2)c(F)c(C(Nc2ccc(C(=N)N)cc2)C(=O)O)c1 (racemic) [Example 13.3, (RS)-(4-carbamimidoyl-phenylamino)-[5-ethoxy-2-fluoro-3-(1-methyl-piperidin-4-yloxy)-phenyl]-acetic acid] | 3.6 µM |  |  | 3300 µg/mL (≈ 7.42 mM) | 
CCOc1cc(OC2CCN(C)CC2)c(F)c([C@@H](Nc2ccc(C(=N)N)cc2)C(=O)O)c1 [Example 13.8, (R)-(4-carbamimidoyl-phenylamino)-[5-ethoxy-2-fluoro-3-(1-methyl-piperidin-4-yloxy)-phenyl]-acetic acid] | 1.6 µM |  |  |  | 5700 µg/mL (≈ 12.8 mM)
